Values of other authors as cited in patent publication US20100204159A1, “ORGANIC COMPOUNDS AND THEIR USES” (priority 2006, published 2010).

System: HCV
Conditions: ribavirin alone; Davis, Gastroenterology 118:S104-S114, 2000

NC(=O)c1ncn([C@@H]2O[C@H](CO)[C@@H](O)[C@H]2O)n1 [Ribavirin, 1-β-D-ribofuranosyl-1-1,2,4-triazole-3-caroxamide]
effect on serum levels of HCV-RNA: does not lower serum levels of HCV-RNA | patients in whom serum amino transferase levels are reduced to normal: 40 % of patients
